Measurements: paper PMC10714399, “Open Source Antibiotics: Simple Diarylimidazoles Are Potent against Methicillin-Resistant Staphylococcus aureus” (ACS Infectious Diseases, 2023)
In brackets after ≈: the same amount, converted by molar mass. Several values for one entry are separate records, joined by “and”; a condition that tells them apart may be missing. Identical values can stand only once. Like-named read-outs stand apart in the source and are kept apart here.

Experiments:
[1] = test system: Staphylococcus aureus NCTC 13373 (mecA-positive; methicillin-resistant); assay: In vitro antibacterial activity, MIC (UCL School of Pharmacy assay), MRSA; format: cell-based; conditions: for MIC: Staphylococcus aureus
Summary of the method: (§1)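 Broth microdilution in isosensitest broth; inoculum from overnight tryptone soya agar culture adjusted to A600 0.1 (~1 × 10^8 CFU/mL) then diluted 1:100. Compounds tested as 2-fold series, 32 to 0.03 μg/mL, DMSO at most 2%; vancomycin as quality control.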

VSE = assay: In vitro antibacterial activity, MIC, VSE; format: cell-based; conditions: for MIC: read-out: VSE MIC (UCL)
[2] = test system: PMM (primary mouse macrophages); assay: Toxicity against PMM; format: cell-based
Description: (§2) ADME and toxicity for compounds were measured according to procedures outlined in the manuscript submitted in parallel to this one;2 other procedures were used for those compounds analysed by Monash University (in vitro ADME) or UCL (toxicity), both described in the main

[3] = test system: S. aureus ATCC 25923 (methicillin-susceptible); assay: In vitro antibacterial activity, MIC (UCL), MSSA; format: cell-based, Staphylococcus aureus; conditions: for MIC: Staphylococcus aureus
Summary of the method: as §1

[4] = test system: MRC-5SV2 (human lung fibroblast cell line); assay: Toxicity against MRC-5SV2; format: cell-based
Description: as §2

[5] = test system: Enterococcus faecalis ATCC 51299 (vanA-positive; vancomycin-resistant); assay: In vitro antibacterial activity, MIC (UCL), VRE; format: cell-based; conditions: for MIC: read-out: VRE MIC (UCL)
Summary of the method: as §1

[6] = Human plasma protein binding (PPB); format: in vitro ADME; conditions: human, plasma
Source text: (§3) To guide our initial SAR exploration work, we obtained liver microsomal intrinsic clearance data for 5 of the 18 compounds assayed by CO-ADD (Supporting Information - CDCO Report and Supporting Information - Biology). We then acquired intrinsic clearance (CLint), plasma protein binding (PPB), and solubility data on further compounds throughout the SAR campaign (Supporting Information - Biology, Tables S3 and S4).
(§4) Table S4. ADME and Pharmacokinetics: compounds only appearing in the Supplementary […]
(§5) MRSA Aqueous HLM CLint Rat Hep CLint
(§6) Cmpd MIC Solubility Human PPB (%) (µL/min/mg (µL/min/10x6 LogD7.4
(§7) (µg/mL) (µM) protein) cells)
as §2

Aqueous solubility = format: physicochemical; conditions: for solubility: thermodynamic from solid
Source text: as §3, with “S4). […] The more polar compounds (lower LogD) had reduced PPB and were more metabolically stable.” for “S4).”
as §4, §5, §6, §7, §2

[7] = Rat hepatocyte intrinsic clearance; format: in vitro ADME
Source text: as §3, §4, §5, §6, §7, §2

LogD7.4 (Chrom Log D) = format: physicochemical
Source text: as §3, with “S4). […] The more polar compounds (lower LogD) had reduced PPB and were more metabolically stable.” for “S4).”
as §4, §5, §6, §7, §2

[8] = Human liver microsome intrinsic clearance; format: in vitro ADME
Source text: as §3, §4, §5, §6, §7, §2

[9] = human plasma, NEU, read-out: Human PPB (NEU) (converted)
[10] = NEU, read-out: Aqueous Solubility (NEU)
[11] = rat hepatocytes, NEU, read-out: Rat Hep CLint (NEU)
[12] = chromatographic system (Chrom Log D), pH 7.4, NEU, read-out: LogD 7.4 (NEU)
[13] = human liver microsomes, NEU, read-out: HLM CLint (NEU)

| MIC ([1]; UCL, read-out: MRSA MIC (UCL)) | MIC (VSE) | MIC ([3]; read-out: MSSA MIC (UCL)) | MIC [5] | fraction unbound [6, 9] | solubility (Aqueous solubility; [10]) | hepatocyte CLint [7, 11] | chromatographic logD (LogD7.4 (Chrom Log D); [12]) | SMILES | PMM TC50 ([2]; PMM) | MRC5 TC50 ([4]; MRC5 cells) | also measured |
| --- | --- | --- | --- | --- | --- | --- | --- | --- | --- | --- | --- |
| – | – | – | – | – | – | – | – | c1ccc(-c2nc3ccccc3n2-c2ccc(N3CCCCC3)cc2)nc1 [compound 994] | – | – | MRSA MIC [1]: 16 µg/mL; VSE MIC (VSE): 32 µg/mL; PMM TC50 [2]: 5.4 µg/mL; MSSA MIC [3]: 32 µg/mL; MRC5 TC50 [4]: 7.0 µg/mL; VRE MIC [5]: 32 µg/mL |
| – | – | – | – | – | – | – | – | Cc1ccc(-c2c(-c3ccccn3)nc3ccccn23)cc1 [compound 1018] | – | – | MIC ([1]; 16 h, read-out: MRSA MIC): 4 µg/mL (≈ 14 µM); MIC ([1]; read-out: MRSA MIC): 4 µg/mL (≈ 14 µM); fraction unbound ([6]; read-out: Human PPB (converted)): 0.01; solubility (Aqueous solubility; read-out: Aqueous Solubility): 43 µM (≈ 12.3 µg/mL); MIC ([3]; read-out: MSSA MIC): 4 µg/mL (≈ 14 µM); hepatocyte CLint ([7]; rat, hepatocytes, Figure 4, read-out: Rat Hep CLint): 57.7 µL/min/1e6 cells; chromatographic logD (LogD7.4 (Chrom Log D); pH 7.4, read-out: LogD7.4): 3.3; microsomal CLint ([8]; human, liver microsomes, read-out: HLM CLint): 122 µL/min/mg |
| – | – | – | – | – | – | – | – | N#Cc1ccc(-n2c(-c3ccccn3)nc3ccccc32)cc1 [compound 990] | – | – | MRSA MIC [1]: > 32 µg/mL and 32 µg/mL; VSE MIC (VSE): > 32 µg/mL; PMM TC50 [2]: 19.0 µg/mL; MSSA MIC [3]: > 32 µg/mL; MRC5 TC50 [4]: 19.0 µg/mL; VRE MIC [5]: > 32 µg/mL |
| > 32 µg/mL | > 32 µg/mL | > 32 µg/mL | > 32 µg/mL | – | – | – | – | c1ccc(-c2nc3ccccc3n2-c2ccc3occc3c2)nc1 [OSA_000991] | 38.63 µM | 64 µM | – |
| 8 µg/mL (≈ 21.1 µM) | 16 µg/mL (≈ 42.3 µM) | 8 µg/mL (≈ 21.1 µM) | 16 µg/mL (≈ 42.3 µM) | 0.0063 | 27 µM (≈ 10.2 µg/mL) | > 300 µL/min/1e6 cells | – | COc1ccc(-c2nc3ccc(OC)cn3c2N(C)c2ccc(F)cc2)nc1 [OSA_000999] | – | – | HLM CLint (NEU) ([8]; human liver microsomes, NEU): 261 uL/min/mg protein |
| 32 µg/mL (≈ 95.1 µM) | – | 32 µg/mL (≈ 95.1 µM) | – | 0.035 | 64 µM (≈ 21.5 µg/mL) | > 300 µL/min/1e6 cells | 1.8 | CN(c1ccc(F)cc1)c1c(-c2ccccn2)nc2cccc(F)n12 [OSA_001005] | – | – | microsomal CLint [8, 13]: 79.3 µL/min/mg |
| 8 µg/mL (≈ 22 µM) | – | 8 µg/mL (≈ 22 µM) | – | 0.0054 | 7 µM (≈ 2.55 µg/mL) | > 300 µL/min/1e6 cells | 4.5 | CSc1ccc2nc(-c3ccccn3)c(N(C)c3ccc(F)cc3)n2c1 [OSA_001004] | – | – | microsomal CLint [8, 13]: > 300 µL/min/mg |
| 4 µg/mL (≈ 13.3 µM) | 16 µg/mL (≈ 53.3 µM) | 4 µg/mL (≈ 13.3 µM) | 16 µg/mL (≈ 53.3 µM) | 0.007 | – | > 300 µL/min/1e6 cells | – | Cc1ccc(Nc2c(-c3ccccn3)nc3ccccn23)cc1 [OSA_000988] | – | – | microsomal CLint [8, 13]: 86.9 µL/min/mg |
| 4 µg/mL (≈ 14 µM) | – | 4 µg/mL (≈ 14 µM) | – | 0.011 | – | – | 3.3 | Cc1ccc(-c2c(-c3ccccn3)nc3ccccn23)cc1 [OSA_001018] | – | – | Aqueous Solubility (NEU) (Aqueous solubility; NEU): 43 µM; Rat Hep CLint (NEU) ([7]; rat hepatocytes, NEU): 57.7 uL/min/10x6 cells; HLM CLint (NEU) ([8]; human liver microsomes, NEU): 122 uL/min/mg protein |
| > 32 µg/mL | > 32 µg/mL | > 32 µg/mL | > 32 µg/mL | – | – | – | – | N#Cc1ccc(-n2c(-c3ccccn3)nc3ccccc32)cc1 [OSA_000990] | 64 µM | 64 µM | – |
| – | – | – | – | – | – | – | – | c1ccc(-n2c(-c3ccccn3)nc3ccccc32)cc1 [compound 992] | – | – | MRSA MIC [1]: > 32 µg/mL and 32 µg/mL; VSE MIC (VSE): > 32 µg/mL; PMM TC50 [2]: 17.4 µg/mL; MSSA MIC [3]: > 32 µg/mL; MRC5 TC50 [4]: 17.4 µg/mL; VRE MIC [5]: > 32 µg/mL |
| > 32 µg/mL | > 32 µg/mL | > 32 µg/mL | > 32 µg/mL | – | – | – | – | NC(=O)c1ccc(-n2c(-c3ccccn3)nc3ccccc32)cc1 [OSA_000989] | 64 µM | 64 µM | – |
| 8 µg/mL (≈ 25.8 µM) | – | 4 µg/mL (≈ 12.9 µM) | 8 µg/mL (≈ 25.8 µM) | 0.014 | 54 µM (≈ 16.8 µg/mL) | > 300 µL/min/1e6 cells | 0.9 | Fc1ccc(Nc2c(-c3ccccn3)nc3sccn23)cc1 [OSA_000984] | 32 µM | 6.4 µM | – |
